Test results published in patent publication US20140309229A1, “METHODS FOR SELECTING AND TREATING CANCER IN PATIENTS WITH IGF-1R/IR INHIBITORS” (priority 2011, published 2014).

Legend:
[1] = patients at minimum efficacious dose, phase I solid tumor trials; cited from earlier work
[2] = test system: panel of 60 CRC cell lines; test: MTS proliferation assay, whole panel; format: cell-based, human; details: read-out: IC50, range of sensitivity across the panel
Method: (§1) Cell lines and in vitro cytotoxicity assay. Cells were maintained at 37° C. under standard cell culture conditions. Cells were plated at an optimized density for each cell line per well in 96-well microtiter FALCON® plates, incubated overnight, and then exposed to a serial dilution of drug. […] The results were expressed as an IC50, which is the drug concentration required to inhibit cell proliferation to 50% of that of untreated control cells. The mean IC50 and standard deviation (SD) from multiple tests for each cell line were calculated.
(§2) In vitro Cellular Proliferation Assays.

[3] = test system: GP2D; test: MTS proliferation assay; format: cell-based, human
Method: as §1, §2

[4] = test system: SNU175; test: MTS proliferation assay; format: cell-based, human
Method: as §1, §2

[5] = test system: NCI-H508; test: MTS proliferation assay; format: cell-based, human
Method: as §1, §2

[6] = test system: SW48; test: MTS proliferation assay; format: cell-based, human
Method: as §1, §2

[7] = test system: CCD18CO; test: MTS proliferation assay; format: cell-based, human
Method: as §1, §2

[8] = test system: HCT8; test: MTS proliferation assay; format: cell-based, human
Method: as §1, §2

[9] = test system: CW-2; test: MTS proliferation assay; format: cell-based, human
Method: as §1, §2

[10] = test system: SW480; test: MTS proliferation assay; format: cell-based, human
Method: as §1, §2

[11] = test system: COLO-678; test: MTS proliferation assay; format: cell-based, human
Method: as §1, §2

[12] = test system: CACO-2; test: MTS proliferation assay; format: cell-based, human
Method: as §1, §2

[13] = test system: RKO PM; test: MTS proliferation assay; format: cell-based, human
Method: as §1, §2

[14] = test system: KM12C; test: MTS proliferation assay; format: cell-based, human
Method: as §1, §2

[15] = test system: SNU-407; test: MTS proliferation assay; format: cell-based, human
Method: as §1, §2

[16] = test system: COLO-320-HSR; test: MTS proliferation assay; format: cell-based, human
Method: as §1, §2

[17] = test system: COLO-205; test: MTS proliferation assay; format: cell-based, human
Method: as §1, §2

[18] = test system: T84; test: MTS proliferation assay; format: cell-based, human
Method: as §1, §2

[19] = test system: HCT116SS42; test: MTS proliferation assay; format: cell-based, human
Method: as §1, §2

[20] = test system: HCC2998; test: MTS proliferation assay; format: cell-based, human
Method: as §1, §2

[21] = test system: HT-29; test: MTS proliferation assay; format: cell-based, human
Method: as §1, §2

[22] = test system: HT55; test: MTS proliferation assay; format: cell-based, human
Method: as §1, §2

[23] = test system: LoVo; test: MTS proliferation assay; format: cell-based, human
Method: as §1, §2

[24] = test system: WIDR; test: MTS proliferation assay; format: cell-based, human
Method: as §1, §2

[25] = test system: HCT-116; test: MTS proliferation assay; format: cell-based, human
Method: as §1, §2

[26] = test system: SW837; test: MTS proliferation assay; format: cell-based, human
Method: as §1, §2

[27] = test system: DLD-1; test: MTS proliferation assay; format: cell-based, human; details: for IC50: Homo sapiens
Method: as §1, §2

[28] = test system: GEO; test: MTS proliferation assay; format: cell-based, human
Method: as §1, §2

[29] = test system: SW1116; test: MTS proliferation assay; format: cell-based, human
Method: as §1, §2

SMILES: C[C@@]1(C(=O)Nc2ccc(F)nc2)CCCN1c1nc(Nc2cc(C3CC3)n[nH]2)c2cccn2n1 [BMS-754807, (2S)-1-(4-((5-cyclopropyl-1H-pyrazol-3-yl)amino)pyrrolo[2,1-f][1,2,4]triazin-2-yl)-N-(6-fluoro-3-pyridinyl)-2-methyl-2-pyrrolidinecarboxamide]
- average plasma concentration at steady state [1]: > 50 nmol/L
- IC50 [2]: 3 to 5500 nM
- Sensitivity Classes ([3]; GP2D): R (“R” refers Resistant)
- IC50 ([3]; Homo sapiens, GP2d, 72 h): 261 nM
- IC50 ([4]; Homo sapiens, 72 h): 3 nM
- Sensitivity Classes ([4]; SNU175): S (“S” refers Sensitive)
- Sensitivity to BMS-754807 ([5]; H508, preliminary panel of 45 CRC cell lines): Sensitive (a sensitive cell line was classified as one with an IC50 of ≦50 nmol/L)
- IC50 ([5]; Homo sapiens, NCI-H508, 72 h): 11 nM
- Sensitivity Classes ([5]; NCI-H508): S (“S” refers Sensitive)
- IC50 ([6]; Homo sapiens, SW48, 72 h): 13 nM
- Sensitivity Classes ([6]; SW48): S (“S” refers Sensitive)
- Sensitivity to BMS-754807 ([6]; SW48, preliminary panel of 45 CRC cell lines): Sensitive (a sensitive cell line was classified as one with an IC50 of ≦50 nmol/L)
- Sensitivity Classes ([7]; CCD18CO): R (“R” refers Resistant)
- Sensitivity to BMS-754807 ([7]; CCD18CO, preliminary panel of 45 CRC cell lines): Resistant (resistant cell lines had IC50 values of >50 nmol/L)
- IC50 ([7]; Homo sapiens, CCD-18Co, 72 h): 2560 nM
- Sensitivity Classes ([8]; HCT8): R (“R” refers Resistant)
- Sensitivity to BMS-754807 ([8]; HCT8, preliminary panel of 45 CRC cell lines): Resistant (resistant cell lines had IC50 values of >50 nmol/L)
- IC50 ([8]; Homo sapiens, HCT-8, 72 h): 4860 nM
- Sensitivity Classes ([9]; CW-2): R (“R” refers Resistant)
- IC50 ([9]; Homo sapiens, CW-2, 72 h): 586 nM
- IC50 ([10]; Homo sapiens, SW480, 72 h): 4890 nM
- Sensitivity Classes ([10]; SW480): R (“R” refers Resistant)
- Sensitivity to BMS-754807 ([10]; SW480, preliminary panel of 45 CRC cell lines): Resistant (resistant cell lines had IC50 values of >50 nmol/L)
- Sensitivity Classes ([11]; COLO-678): R (“R” refers Resistant)
- IC50 ([11]; Homo sapiens, COLO-678, 72 h): 192 nM
- Sensitivity Classes ([12]; CACO-2): R (“R” refers Resistant)
- Sensitivity to BMS-754807 ([12]; CACO-2, preliminary panel of 45 CRC cell lines): Resistant (resistant cell lines had IC50 values of >50 nmol/L)
- IC50 ([12]; Homo sapiens, Caco-2, 72 h): 5500 nM
- IC50 ([13]; Homo sapiens, 72 h): 857 nM
- Sensitivity Classes ([13]; RKO PM): R (“R” refers Resistant)
- Sensitivity to BMS-754807 ([13]; RKO PM, preliminary panel of 45 CRC cell lines): Resistant (resistant cell lines had IC50 values of >50 nmol/L)
- Sensitivity Classes [14]: S (“S” refers Sensitive)
- IC50 ([14]; Homo sapiens, 72 h): 33 nM
- Sensitivity to BMS-754807 ([14]; preliminary panel of 45 CRC cell lines): Sensitive (a sensitive cell line was classified as one with an IC50 of ≦50 nmol/L)
- IC50 ([15]; Homo sapiens, SNU-407, 72 h): 13 nM
- Sensitivity Classes ([15]; SNU-407): S (“S” refers Sensitive)
- Sensitivity to BMS-754807 ([16]; COLO320HSR, preliminary panel of 45 CRC cell lines): Sensitive (a sensitive cell line was classified as one with an IC50 of ≦50 nmol/L)
- Sensitivity Classes ([16]; COLO-320-HSR): S (“S” refers Sensitive)
- IC50 ([16]; Homo sapiens, COLO-320-HSR, 72 h): 35 nM
- Sensitivity to BMS-754807 ([17]; COLO205, preliminary panel of 45 CRC cell lines): Intermediate (remaining 30 cell lines classified as Intermediate or resistant)
- Sensitivity Classes ([17]; COLO-205): R (“R” refers Resistant)
- IC50 ([17]; Homo sapiens, COLO 205, 72 h): 242 nM
- IC50 ([18]; Homo sapiens, T84, 72 h): 5200 nM
- Sensitivity Classes ([18]; T84): R (“R” refers Resistant)
- Sensitivity to BMS-754807 ([18]; T84, preliminary panel of 45 CRC cell lines): Resistant (resistant cell lines had IC50 values of >50 nmol/L)
- Sensitivity Classes ([19]; HCT116SS42): R (“R” refers Resistant)
- Sensitivity to BMS-754807 ([19]; HCT116SS42, preliminary panel of 45 CRC cell lines): Intermediate (remaining 30 cell lines classified as Intermediate or resistant)
- IC50 ([19]; Homo sapiens, 72 h): 427 nM
- Sensitivity Classes ([20]; HCC2998): R (“R” refers Resistant)
- IC50 ([20]; Homo sapiens, HCC 2998, 72 h): 380 nM
- Sensitivity to BMS-754807 ([21]; HT29, preliminary panel of 45 CRC cell lines): Intermediate (remaining 30 cell lines classified as Intermediate or resistant)
- Sensitivity Classes ([21]; HT-29): R (“R” refers Resistant)
- IC50 ([21]; Homo sapiens, HT-29, 72 h): 451 nM
- Sensitivity Classes ([22]; HT55): S (“S” refers Sensitive)
- IC50 ([22]; Homo sapiens, HT55, 72 h): 3 nM
- IC50 ([23]; Homo sapiens, LoVo, 72 h): 3870 nM
- Sensitivity to BMS-754807 ([23]; LOVO, preliminary panel of 45 CRC cell lines): Resistant (resistant cell lines had IC50 values of >50 nmol/L)
- Sensitivity Classes ([23]; LoVo): R (“R” refers Resistant)
- IC50 ([24]; Homo sapiens, WiDr, 72 h): 194 nM
- Sensitivity Classes ([24]; WIDR): R (“R” refers Resistant)
- Sensitivity to BMS-754807 ([24]; WIDR, preliminary panel of 45 CRC cell lines): Intermediate (remaining 30 cell lines classified as Intermediate or resistant)
- Sensitivity to BMS-754807 ([25]; HCT116, preliminary panel of 45 CRC cell lines): Resistant (resistant cell lines had IC50 values of >50 nmol/L)
- Sensitivity Classes ([25]; HCT-116): R (“R” refers Resistant)
- IC50 ([25]; Homo sapiens, HCT-116, 72 h): 503 nM
- IC50 ([26]; Homo sapiens, SW837, 72 h): 1890 nM
- Sensitivity Classes ([26]; SW837): R (“R” refers Resistant)
- Sensitivity to BMS-754807 ([26]; SW837, preliminary panel of 45 CRC cell lines): Resistant (resistant cell lines had IC50 values of >50 nmol/L)
- Sensitivity Classes ([27]; DLD-1): R (“R” refers Resistant)
- Sensitivity to BMS-754807 ([27]; DLD-1, preliminary panel of 45 CRC cell lines): Resistant (resistant cell lines had IC50 values of >50 nmol/L)
- IC50 ([27]; DLD-1): 666 nM
- IC50 ([27]; DLD-1, 72 h): 666 nM
- Sensitivity Classes ([28]; GEO): R (“R” refers Resistant)
- Sensitivity to BMS-754807 ([28]; GEO, preliminary panel of 45 CRC cell lines): Intermediate (remaining 30 cell lines classified as Intermediate or resistant)
- IC50 ([28]; Homo sapiens, 72 h): 407 nM
- IC50 ([29]; Homo sapiens, SW 1116, 72 h): 24 nM
- Sensitivity Classes ([29]; SW1116): S (“S” refers Sensitive)
- Sensitivity to BMS-754807 ([29]; SW1116, preliminary panel of 45 CRC cell lines): Sensitive (a sensitive cell line was classified as one with an IC50 of ≦50 nmol/L)
